Converted amounts (≈) assume the structure as drawn. The source made the active and inactive calls. The calls are words filed in the database; no cut-off is given here.
Columns and labels:
[1] = tested on: Klebsiella pneumoniae; test: Antimicrobial activity against Klebsiella pneumoniae by broth dilution method; type: functional
[2] = tested on: Pseudomonas aeruginosa; test: Antimicrobial activity against Pseudomonas aeruginosa B4 by broth dilution method; type: functional
[3] = tested on: Escherichia coli; test: Antimicrobial activity against Escherichia coli Libyien harboring beta-lactamase CMY-2 by broth dilution method; type: functional
[4] = tested on: Escherichia coli; test: Antimicrobial activity against Escherichia coli by broth dilution method; type: functional
[5] = tested on: Klebsiella pneumoniae; test: Antimicrobial activity against Klebsiella pneumoniae CRE harboring beta-lactamase KPC-2 by broth dilution method; type: functional
[6] = tested on: Providencia rettgeri; test: Antimicrobial activity against Providencia rettgeri J96 harboring beta-lactamase IMP-1 by broth dilution method; type: functional
[7] = tested on: Enterobacter cloacae; test: Antimicrobial activity against Enterobacter cloacae by broth dilution method; type: functional
[8] = tested on: Escherichia coli; test: Antimicrobial activity against Escherichia coli A harboring beta-lactamase CTX-M 15 by broth dilution method; type: functional
[9] = tested on: Klebsiella oxytoca; test: Antimicrobial activity against Klebsiella oxytoca 1028E harboring beta-lactamase K1 by broth dilution method; type: functional
[10] = tested on: Pseudomonas aeruginosa; test: Antimicrobial activity against Pseudomonas aeruginosa BA(C1-106) selected after 25 ug/ml of compound exposure by broth dilution method; type: functional
[11] = tested on: Proteus penneri; test: Antimicrobial activity against Proteus penneri by broth dilution method; type: functional
[12] = tested on: Pseudomonas aeruginosa; test: Antimicrobial activity against Pseudomonas aeruginosa HPA10586 harboring beta-lactamase VIM-1 by broth dilution method; type: functional
[13] = tested on: Proteus vulgaris; test: Antimicrobial activity against Proteus vulgaris by broth dilution method; type: functional
[14] = tested on: Pseudomonas aeruginosa; test: Antimicrobial activity against mexAB-oprM protein and mexCD-oprJ deficient Pseudomonas aeruginosa PAO238 by broth dilution method; type: functional
[15] = tested on: Stenotrophomonas maltophilia; test: Antimicrobial activity against Stenotrophomonas maltophilia by broth dilution method; type: functional
[16] = tested on: Acinetobacter junii; test: Antimicrobial activity against Acinetobacter junii 15218 assessed as number of passages required for MIC to rise above 4 times original MIC; type: functional
[17] = tested on: Acinetobacter baumannii; test: Antimicrobial activity against Acinetobacter baumannii HPA I-16 harboring beta-lactamase OXA-27 by broth dilution method; type: functional
[18] = tested on: Acinetobacter baumannii; test: Antimicrobial activity against Acinetobacter baumannii HPA74510 harboring beta-lactamase IMP-4 by broth dilution method; type: functional
[19] = tested on: Serratia marcescens; test: Antimicrobial activity against Serratia marcescens S6 harboring beta-lactamase SME-1.AmpC by broth dilution method; type: functional
[20] = tested on: Pseudomonas aeruginosa; test: microbe, parasite or virus in culture; conditions: BA
Description: Antimicrobial activity against Pseudomonas aeruginosa BA harboring beta-lactamase Class C by broth dilution method

[21] = tested on: Pseudomonas aeruginosa; test: Antimicrobial activity against Pseudomonas aeruginosa 527 assessed as number of passages required for MIC to rise above 4 times original MIC; type: functional
[22] = tested on: Serratia marcescens; test: Antimicrobial activity against Serratia marcescens by broth dilution method; type: functional
[23] = tested on: Pseudomonas aeruginosa; test: microbe, parasite or virus in culture; conditions: 18S/H
Description: Antimicrobial activity against Pseudomonas aeruginosa 18S/H harboring beta-lactamase Class C by broth dilution method

[24] = tested on: Acinetobacter baumannii; test: Antimicrobial activity against Acinetobacter baumannii HPA74510 assessed as number of passages required for MIC to rise above 4 times original MIC; type: functional
[25] = tested on: Citrobacter freundii; test: Antimicrobial activity against Citrobacter freundii by broth dilution method; type: functional
[26] = tested on: Acinetobacter baumannii; test: Antimicrobial activity against Acinetobacter baumannii HPA 4737 harboring beta-lactamase OXA-26 by broth dilution method; type: functional
[27] = tested on: Acinetobacter baumannii; test: Antimicrobial activity against Acinetobacter baumannii HPA 327009 harboring beta-lactamase OXA-25 by broth dilution method; type: functional
[28] = tested on: Enterobacter cloacae; test: Antimicrobial activity against Enterobacter cloacae S9369 assessed as number of passages required for MIC to rise above 4 times original MIC; type: functional
[29] = tested on: Pseudomonas aeruginosa; test: Antimicrobial activity against mexAB-oprM protein and mexCD-oprJ deficient Pseudomonas aeruginosa PAO253 overexpressing MexEF-OprN gene by broth dilution method; type: functional
[30] = tested on: Klebsiella pneumoniae; test: Antimicrobial activity against Klebsiella pneumoniae 1357E harboring beta-lactamase TEM-10 by broth dilution method; type: functional
[31] = tested on: Klebsiella pneumoniae; test: Antimicrobial activity against Klebsiella pneumoniae 1338665 assessed as number of passages required for MIC to rise above 4 times original MIC; type: functional
[32] = tested on: Pseudomonas aeruginosa; test: microbe, parasite or virus in culture; conditions: PAO1
Description: Antimicrobial activity against Pseudomonas aeruginosa PAO1 by broth dilution method

[33] = tested on: Pseudomonas aeruginosa; test: Antimicrobial activity against mexAB-oprM, mexCD-oprJ, mexEF-oprN, mexJK, mexXY, opmH and pscC gene deficient Pseudomonas aeruginosa PAO750 by broth dilution method; type: functional
[34] = tested on: Pseudomonas aeruginosa; test: Antimicrobial activity against Pseudomonas aeruginosa HPA101-1477 harboring beta-lactamase IMP-1 by broth dilution method; type: functional
[35] = tested on: Enterobacter cloacae; test: Antimicrobial activity against Enterobacter cloacae 908R harboring beta-lactamase AmpC by broth dilution method; type: functional
[36] = tested on: Pseudomonas aeruginosa; test: Antimicrobial activity against Pseudomonas aeruginosa BA(C2-107) selected after 25 ug/ml of compound exposure by broth dilution method; type: functional
[37] = tested on: Stenotrophomonas maltophilia; test: Antimicrobial activity against Stenotrophomonas maltophilia 1AC736 assessed as number of passages required for MIC to rise above 4 times original MIC; type: functional
[38] = tested on: Klebsiella pneumoniae; test: Antimicrobial activity against Klebsiella pneumoniae 26768WU harboring beta-lactamase SHV-5 by broth dilution method; type: functional
[39] = tested on: Pseudomonas aeruginosa; test: Antimicrobial activity against Pseudomonas aeruginosa by broth dilution method; type: functional
[40] = tested on: Providencia stuartii; test: Antimicrobial activity against Providencia stuartii by broth dilution method; type: functional
[41] = tested on: Pseudomonas aeruginosa; test: Antimicrobial activity against mexAB-oprM protein and mexZ deficient Pseudomonas aeruginosa PAO267 by broth dilution method; type: functional
[42] = tested on: Providencia rettgeri; test: Antimicrobial activity against Providencia rettgeri by broth dilution method; type: functional
[43] = tested on: Serratia marcescens; test: Antimicrobial activity against Serratia marcescens 1T9 harboring beta-lactamase Class C by broth dilution method; type: functional
[44] = tested on: Klebsiella oxytoca; test: Antimicrobial activity against Klebsiella oxytoca by broth dilution method; type: functional
[45] = tested on: Pseudomonas aeruginosa; test: Antimicrobial activity against Pseudomonas aeruginosa 1973E harboring beta-lactamase PSE-1 and class C enzymes by broth dilution method; type: functional
[46] = tested on: Klebsiella pneumoniae; test: Antimicrobial activity against Klebsiella pneumoniae YC harboring beta-lactamase KPC-2,TEM-1and SHV-2 by broth dilution method; type: functional
[47] = tested on: Escherichia coli; test: Antimicrobial activity against Escherichia coli HB101 harboring beta-lactamase TEM-5 by broth dilution method; type: functional
[48] = tested on: Klebsiella aerogenes; test: Antimicrobial activity against Enterobacter aerogenes by broth dilution method; type: functional
[49] = tested on: Pseudomonas aeruginosa; test: Antimicrobial activity against Pseudomonas aeruginosa 621 assessed as number of passages required for MIC to rise above 4 times original MIC; type: functional
[50] = tested on: Pseudomonas aeruginosa; test: Antimicrobial activity against oprD protein deficient Pseudomonas aeruginosa C2 by broth dilution method; type: functional
[51] = tested on: Pseudomonas aeruginosa; test: Antimicrobial activity against Pseudomonas aeruginosa BA by broth dilution method; type: functional; conditions: Pseudomonas aeruginosa, BA; read-out: MIC
[52] = tested on: Burkholderia sp.; test: Antimicrobial activity against Burkholderia sp. by broth dilution method; type: functional
[53] = tested on: Enterobacter cloacae; test: Antimicrobial activity against Enterobacter cloacae S4741B assessed as number of passages required for MIC to rise above 4 times original MIC; type: functional
[54] = tested on: Escherichia coli; test: Antimicrobial activity against Escherichia coli nmcA harboring beta-lactamase NMCA by broth dilution method; type: functional
[55] = tested on: Escherichia coli; test: Antimicrobial activity against Escherichia coli CF102 harboring beta-lactamase TEM-3 by broth dilution method; type: functional
[56] = tested on: Escherichia coli; test: Antimicrobial activity against Escherichia coli K802N harboring beta-lactamase TEM-3 by broth dilution method; type: functional
[57] = tested on: Proteus mirabilis; test: Antimicrobial activity against Proteus mirabilis by broth dilution method; type: functional
[58] = tested on: Pseudomonas aeruginosa; test: Antimicrobial activity against Pseudomonas aeruginosa HPA996 harboring beta-lactamase VIM-2 by broth dilution method; type: functional
[59] = tested on: Acinetobacter sp.; test: Antimicrobial activity against Acinetobacter sp. by broth dilution method; type: functional
[60] = tested on: Stenotrophomonas maltophilia; test: Antimicrobial activity against Stenotrophomonas maltophilia B715 harboring beta-lactamase L1and L2 by broth dilution method; type: functional
[61] = tested on: Pseudomonas aeruginosa; test: Antimicrobial activity against Pseudomonas aeruginosa 1937E harboring beta-lactamase PSE-4 and class C enzymes by broth dilution method; type: functional
[62] = tested on: Pseudomonas aeruginosa; test: Antimicrobial activity against Pseudomonas aeruginosa BA assessed as number of passages required for MIC to rise above 4 times original MIC; type: functional

For `C[C@@H](O)[C@H]1C(=O)N2C(C(=O)O)=C(SCCNC=N)C[C@H]12` [IMIPENEM ANHYDROUS], the MIC50 [1] was 1 µg/mL (≈ 3.34 µM), the MIC90 [1] was 16 µg/mL (≈ 53.4 µM) and the MIC [2] was 1 µg/mL (≈ 3.34 µM). It also gave an MIC [3] of 1 µg/mL (≈ 3.34 µM), an MIC50 [4] of 0.25 µg/mL (≈ 0.835 µM) and an MIC90 [4] of 0.5 µg/mL (≈ 1.67 µM). The MIC [5] was > 32 µg/mL, the MIC [6] was > 32 µg/mL and the MIC50 [7] was 2 µg/mL (≈ 6.68 µM). The MIC90 [7] was 4 µg/mL (≈ 13.4 µM), the MIC [8] was 0.25 µg/mL (≈ 0.835 µM) and the MIC [9] was 0.5 µg/mL (≈ 1.67 µM). For the same molecule, the MIC [10] was 1 µg/mL (≈ 3.34 µM), the MIC50 [11] was 4 µg/mL (≈ 13.4 µM) and the MIC90 [11] was 8 µg/mL (≈ 26.7 µM). The MIC [12] was > 32 µg/mL, the MIC50 [13] was 4 µg/mL (≈ 13.4 µM) and the MIC90 [13] was 8 µg/mL (≈ 26.7 µM). The MIC [14] was 2 µg/mL (≈ 6.68 µM), the MIC [15] was > 32 µg/mL and the MIC50 [15] was > 32 µg/mL. The MIC90 [15] was > 32 µg/mL, the Activity [16] was 17 passages and the MIC [17] was > 32 µg/mL. The MIC [18] was 16 µg/mL (≈ 53.4 µM), the MIC [19] was > 32 µg/mL and the MIC [20] was 1 µg/mL (≈ 3.34 µM). The Activity [21] was “inactive”, the MIC50 [22] was 2 µg/mL (≈ 6.68 µM) and the MIC90 [22] was 8 µg/mL (≈ 26.7 µM). The MIC [23] was 4 µg/mL (≈ 13.4 µM), the Activity [24] was 1 passages and the MIC50 [25] was 1 µg/mL (≈ 3.34 µM). The MIC90 [25] was 2 µg/mL (≈ 6.68 µM), the MIC [26] was > 32 µg/mL and the MIC [27] was > 32 µg/mL. The Activity [28] was 9 passages, the MIC [29] was 4 µg/mL (≈ 13.4 µM) and the MIC [30] was 0.5 µg/mL (≈ 1.67 µM). For the same molecule, the Activity [31] was 2 passages, the MIC [32] was 2 µg/mL (≈ 6.68 µM) and the MIC [33] was 2 µg/mL (≈ 6.68 µM). The MIC [34] was > 32 µg/mL, the MIC [35] was 1 µg/mL (≈ 3.34 µM) and the MIC [36] was 1 µg/mL (≈ 3.34 µM). The Activity [37] was “inactive”, the MIC [38] was 1 µg/mL (≈ 3.34 µM) and the MIC50 [39] was 4 µg/mL (≈ 13.4 µM). The MIC90 [39] was > 32 µg/mL, the MIC50 [40] was 4 µg/mL (≈ 13.4 µM) and the MIC90 [40] was 16 µg/mL (≈ 53.4 µM). It also gave an MIC [41] of 1 µg/mL (≈ 3.34 µM), an MIC50 [42] of 4 µg/mL (≈ 13.4 µM) and an MIC90 [42] of 16 µg/mL (≈ 53.4 µM). The MIC [43] was 1 µg/mL (≈ 3.34 µM), the MIC50 [44] was 0.25 µg/mL (≈ 0.835 µM) and the MIC90 [44] was 1 µg/mL (≈ 3.34 µM). The MIC [45] was 2 µg/mL (≈ 6.68 µM), the MIC [46] was > 32 µg/mL and the MIC [47] was 0.25 µg/mL (≈ 0.835 µM). The MIC50 [48] was 2 µg/mL (≈ 6.68 µM), the MIC90 [48] was 16 µg/mL (≈ 53.4 µM) and the Activity [49] was “inactive”. The MIC [50] was 32 µg/mL (≈ 107 µM), the MIC [51] was 1 µg/mL (≈ 3.34 µM) and the MIC50 [52] was 32 µg/mL (≈ 107 µM). The MIC90 [52] was > 32 µg/mL, the Activity [53] was 3 passages and the MIC [54] was > 32 µg/mL. For the same molecule, the MIC [55] was 0.5 µg/mL (≈ 1.67 µM), the MIC [56] was 32 µg/mL (≈ 107 µM) and the MIC50 [57] was 4 µg/mL (≈ 13.4 µM). For the same molecule, the MIC90 [57] was 8 µg/mL (≈ 26.7 µM), the MIC [58] was > 32 µg/mL and the MIC50 [59] was 0.25 µg/mL (≈ 0.835 µM). For the same molecule, the MIC90 [59] was 32 µg/mL (≈ 107 µM), the MIC [60] was > 32 µg/mL and the MIC [61] was 2 µg/mL (≈ 6.68 µM). It also gave an Activity [62] of 4 passages.
